According to publication PMC6968775, “Assessment of contribution of BCRP to intestinal absorption of various drugs using portal‐systemic blood concentration difference model in mice” (Pharmacology Research & Perspectives, 2020):
“And” between values parts separate entries of the source, which are not always exact repeats. Identical values can stand only once. Counter-ions that a name gives are not always drawn.

Tests used:
[1] = Pharmacokinetics after iv and oral administration, P‐S difference method, Mdr1a/1b(−/−) mice; assay type: in vivo
Procedure: (§1) Male Mdr1a/1b(−/−) and Bcrp(−/−) mice, and WT mice of the same genetic background (FVB) were obtained from Taconic Farms (Germantown, NY, USA). […] Food and water were available ad libitum. All experiments were carried out in accordance with the principles and procedures outlined in the National Institutes of Health Guide for the Care and Use of Laboratory.
(§2) All the mice were fasted overnight with free access to tap water. In the intravenous administration studies, model compounds were administered via the tail vein at doses of 1 mg/kg (n = 3). Following administration, blood samples were collected from the abdominal vein of the anesthetized mice at 0.083, 0.17, 0.5, 1, 2, 4, and 8 hours. […] Following administration, blood samples were taken from the portal and abdominal veins of the anesthetized mice at 0.083, 0.17, 0.5, 1, 2, 4, and 8 hours. The plasma samples were separated by centrifugation at 14 000g for 10 minutes at 4°C and stored at −30°C until analysis.
(§3) After organic layer was evaporated at 60°C, the resultant residues were dissolved in a mobile phase. For the determination of topotecan and sulfasalazine, plasma samples were mixed with acetonitrile, centrifuged at 750 g for 10 minutes at 4°C, and the supernatants were collected. After the evaporation of the supernatants, the residues were dissolved in a mobile phase, and acidified with phosphoric acid for topotecan. All drugs were analyzed by HPLC system (Shimadzu LC‐10AS pump, Shimadzu SIL‐10A autosampler) equipped with a reverse‐phase column (COSMOSIL 5C18‐AR‐II, 3.5‐μm […], 4.6 × 150 mm).
(§4) Elimination rate constant (k e) was determined by the least squares regression analysis of plasma concentration vs time curve. Elimination half‐life (t 1/2) was calculated using Eq.1:(1) t1/2=ln2/ke
(§5) Area under plasma concentration‐time curve (AUC) and area under the first moment curve (AUMC) from time 0 to infinity were calculated by trapezoidal rule.
(§6) Absorption rate constant (k a) after oral administration was calculated by the nonlinear least squares fitting with program MULTI.12
(§7) BA was calculated by Eq.5:(7) BA=AUCoral/AUCiv×Doseiv/Doseoral×100 where AUCoral is AUC after oral administration. Doseiv and Doseoral are administered dose in the intravenous and oral administration study, respectively.
(§8) Hepatic availability (F h) was calculated by Eq.6:(8) Fh=F/Fa×Fg

P‐gp [2] = system: P‐gp
[3] = cited from earlier work
[4] = Blood/plasma concentration ratio (R b) in fresh whole blood; assay type: in vitro ADME, FVB mice; details: fresh whole blood, FVB mouse whole blood, 37°C
Procedure: Similarly, the model compounds were added to plasma, and reference blood samples were obtained according to the same procedure. These concentrations of drugs in each sample were analyzed using HPLC (C B and C P, respectively). R b value was calculated by dividing C B by C P.

BCRP [5] = test: Human AQBCRP estimated from the clinical data; assay type: in vivo
[6] = Pharmacokinetics after iv and oral administration, P‐S difference method, wild‐type mice; assay type: in vivo; details: for half-life / AUC(0-inf) / Cmax / Tmax: 1 mg/kg
Procedure: as §1, §2, §3, §4, §5, §6, §7, §8

BCRP [7] = details: calculated from k a in WT, Bcrp(−/−) and Mdr1a/1b(−/−) mice (Eq. 9)
P‐gp [8] = details: Caco‐2 permeability study; unpublished data; ref Fujita et al, manuscript in preparation; cited from earlier work
[9] = Pharmacokinetics after iv and oral administration, P‐S difference method, Bcrp(−/−) mice; assay type: in vivo
Procedure: as §1, §2, §3, §4, §5, §6, §7, §8

[10] = Mdr1a/1b(−/−) mice, p.o. (ciprofloxacin 1, nitrofurantoin 2, topotecan 1, sulfasalazine 5 mg/kg)
[11] = male, Mdr1a/1b(−/−) (FVB background), mouse, portal vein plasma, po, 1 mg/kg
[12] = male, Mdr1a/1b(−/−) (FVB background), mouse, systemic plasma (abdominal vein), po, 1 mg/kg
[13] = male, FVB (wild-type), mouse, portal vein plasma, po
[14] = male, FVB (wild-type), mouse, systemic plasma (abdominal vein), po
[15] = wild‐type mice, p.o. (ciprofloxacin 1, nitrofurantoin 2, topotecan 1, sulfasalazine 5 mg/kg)
[16] = Bcrp(−/−) mice, p.o. (ciprofloxacin 1, nitrofurantoin 2, topotecan 1, sulfasalazine 5 mg/kg)
[17] = male, Bcrp(−/−) (FVB background), mouse, portal vein plasma, po, 1 mg/kg
[18] = male, Bcrp(−/−) (FVB background), mouse, systemic plasma (abdominal vein), po, 1 mg/kg

F h [1, 10]: 54.8% | k a [1, 10]: 3.68 h⁻¹ | BA ([1]; Mdr1a/1b(−/−) mice, p.o. (ciprofloxacin 1, nitrofurantoin 2, topotecan 1, sulfasalazine 5 mg/kg) vs iv 1 mg/kg): 34.9% | F a F g ([1]; Mdr1a/1b(−/−) mice, p.o. (ciprofloxacin 1, nitrofurantoin 2, topotecan 1, sulfasalazine 5 mg/kg), P‐S difference method): 63.8% | k a, P‐gp ([1]; Table 5 summary, Mdr1a/1b(−/−) mice, oral administration): 3.68 | (F a F g)P‐gp ([1]; as fraction, Mdr1a/1b(−/−) mice, oral administration): 0.64 | clearance ([1]; male, FVB Mdr1a/1b(−/−), mouse, plasma (systemic, abdominal vein), Mdr1a/1b(−/−) mice, iv 1 mg/kg, read-out: CL tot (converted)): 35.5 mL/min/kg | Vd ([1]; male, FVB Mdr1a/1b(−/−), mouse, plasma (systemic, abdominal vein), Mdr1a/1b(−/−) mice, iv 1 mg/kg, read-out: Vdss): 2.19 L/kg | AUC(0-inf) ([1]; male, FVB Mdr1a/1b(−/−), mouse, portal vein plasma, po, 1 mg/kg, read-out: AUC 0→∞ (AUCpv)): 0.589 µM·h | AUC(0-inf) ([1]; male, FVB Mdr1a/1b(−/−), mouse, systemic plasma (abdominal vein), po, 1 mg/kg, read-out: AUC 0→∞ (AUCsys)): 0.358 µM·h | half-life ([1]; male, Mdr1a/1b(−/−) (FVB background), mouse, plasma, Mdr1a/1b(−/−) mice, iv 1 mg/kg): 64.8 min | AUC(0-inf) ([1]; male, Mdr1a/1b(−/−) (FVB background), mouse, plasma, Mdr1a/1b(−/−) mice, iv 1 mg/kg, read-out: AUC 0→∞): 1.02 µM·h | Cmax [1, 11]: 664 nM | Tmax [1, 11]: 4.8 min | Cmax [1, 12]: 242 nM | Tmax [1, 12]: 10.2 min | half-life [1, 12]: 73.8 min | AQ P‐gp (in vivo) (P‐gp [2]; calculated from k a in WT, Bcrp(−/−) and Mdr1a/1b(−/−) mice (Eq. 10)): 0.08 | R P‐gp (rate of P‐gp contribution) (P‐gp [2]; in vivo (mice), calculated from F a F g in WT, Bcrp(−/−) and Mdr1a/1b(−/−) mice (Eq. 12)): 0.06 | blood plasma ratio at 15 min, 1 µg/mL [4]: 0.94 ± 0.05 | human AQBCRP (BCRP [5]): 0.58 | k a, wt ([6]; Table 5 summary, WT mice, oral administration): 3.18 | (F a F g) wt ([6]; as fraction, WT mice, oral administration): 0.57 | clearance ([6]; male, FVB (wild-type), mouse, plasma (systemic, abdominal vein), wild‐type mice, iv 1 mg/kg, read-out: CL tot (converted)): 36.7 mL/min/kg | Vd ([6]; male, FVB (wild-type), mouse, plasma (systemic, abdominal vein), wild‐type mice, iv 1 mg/kg, read-out: Vdss): 2.59 L/kg | half-life ([6]; male, FVB (wild-type), mouse, plasma, iv, wild‐type mice, iv 1 mg/kg): 75.6 min | AUC(0-inf) ([6]; male, FVB (wild-type), mouse, plasma, iv, wild‐type mice, iv 1 mg/kg, read-out: AUC 0→∞): 0.994 µM·h | Cmax [6, 13]: 720 nM | Tmax [6, 13]: 4.8 min | AUC(0-inf) ([6]; male, FVB (wild-type), mouse, portal vein plasma, po, wild‐type mice, p.o. (ciprofloxacin 1, nitrofurantoin 2, topotecan 1, sulfasalazine 5 mg/kg), portal vein (pv) plasma, read-out: AUC 0→∞ (AUCpv)): 0.577 µM·h | Cmax [6, 14]: 218 nM | Tmax [6, 14]: 30 min | half-life ([6]; male, FVB (wild-type), mouse, systemic plasma (abdominal vein), po, wild‐type mice, p.o. (ciprofloxacin 1, nitrofurantoin 2, topotecan 1, sulfasalazine 5 mg/kg), systemic (sys) plasma): 62.4 min | AUC(0-inf) ([6]; male, FVB (wild-type), mouse, systemic plasma (abdominal vein), po, wild‐type mice, p.o. (ciprofloxacin 1, nitrofurantoin 2, topotecan 1, sulfasalazine 5 mg/kg), systemic (sys) plasma, read-out: AUC 0→∞ (AUCsys)): 0.37 µM·h | F h [6, 15]: 65.6% | k a [6, 15]: 3.18 h⁻¹ | F a F g ([6]; wild‐type mice, p.o. (ciprofloxacin 1, nitrofurantoin 2, topotecan 1, sulfasalazine 5 mg/kg), P‐S difference method): 57% and 56.8% | AQ bcrp (in vivo) (BCRP [7]): 0.35 | F h [9, 16]: 74.0% | k a [9, 16]: 5.18 h⁻¹ | BA ([9]; Bcrp(−/−) mice, p.o. (ciprofloxacin 1, nitrofurantoin 2, topotecan 1, sulfasalazine 5 mg/kg) vs iv 1 mg/kg): 76.3% | F a F g ([9]; Bcrp(−/−) mice, p.o. (ciprofloxacin 1, nitrofurantoin 2, topotecan 1, sulfasalazine 5 mg/kg), P‐S difference method): 103% | k a, bcrp ([9]; Table 5 summary, Bcrp(−/−) mice, oral administration): 5.18 | (F a F g)bcrp ([9]; as fraction, Bcrp(−/−) mice, oral administration): 1.03 | half-life ([9]; male, Bcrp(−/−) (FVB background), mouse, plasma, iv, 1 mg/kg, Bcrp(−/−) mice, iv 1 mg/kg): 89.4 min | Cmax [9, 17]: 855 nM | Tmax [9, 17]: 4.8 min | Cmax [9, 18]: 476 nM | Tmax [9, 18]: 10.2 min | AUC(0-inf) ([9]; male, FVB Bcrp(−/−), mouse, plasma (systemic, abdominal vein), iv, 1 mg/kg, Bcrp(−/−) mice, iv 1 mg/kg, read-out: AUC 0→∞): 1.49 µM·h | clearance ([9]; male, FVB Bcrp(−/−), mouse, plasma (systemic, abdominal vein), Bcrp(−/−) mice, iv 1 mg/kg, read-out: CL tot (converted)): 24.5 mL/min/kg | Vd ([9]; male, FVB Bcrp(−/−), mouse, plasma (systemic, abdominal vein), Bcrp(−/−) mice, iv 1 mg/kg, read-out: Vdss): 2.21 L/kg | AUC(0-inf) ([9]; male, FVB Bcrp(−/−), mouse, portal vein plasma, po, 1 mg/kg, Bcrp(−/−) mice, p.o. (ciprofloxacin 1, nitrofurantoin 2, topotecan 1, sulfasalazine 5 mg/kg), portal vein (pv) plasma, read-out: AUC 0→∞ (AUCpv)): 1.51 µM·h | AUC(0-inf) ([9]; male, FVB Bcrp(−/−), mouse, portal vein plasma, po, Bcrp(−/−) mice, p.o. (ciprofloxacin 1, nitrofurantoin 2, topotecan 1, sulfasalazine 5 mg/kg), portal vein (pv) plasma, read-out: AUC 0→∞ (AUCpv)): 1.51 µM·h | half-life ([9]; male, FVB Bcrp(−/−), mouse, systemic plasma (abdominal vein), po, 1 mg/kg, Bcrp(−/−) mice, p.o. (ciprofloxacin 1, nitrofurantoin 2, topotecan 1, sulfasalazine 5 mg/kg), systemic (sys) plasma): 88.2 min | AUC(0-inf) ([9]; male, FVB Bcrp(−/−), mouse, systemic plasma (abdominal vein), po, 1 mg/kg, Bcrp(−/−) mice, p.o. (ciprofloxacin 1, nitrofurantoin 2, topotecan 1, sulfasalazine 5 mg/kg), systemic (sys) plasma, read-out: AUC 0→∞ (AUCsys)): 1.14 µM·h | AUC(0-inf) ([9]; male, FVB Bcrp(−/−), mouse, systemic plasma (abdominal vein), po, Bcrp(−/−) mice, p.o. (ciprofloxacin 1, nitrofurantoin 2, topotecan 1, sulfasalazine 5 mg/kg), systemic (sys) plasma, read-out: AUC 0→∞ (AUCsys)): 1.14 µM·h | AUC pv and AUC sys after oral administration, Bcrp(−/−) mice vs WT mice ([9]; oral administration): approximately 3 fold
SMILES: CC[C@@]1(O)C(=O)OCc2c1cc1n(c2=O)Cc2cc3c(CN(C)C)c(O)ccc3nc2-1 [topotecan, Topotecan HCl]
BA after oral administration ([3]; human clinical studies): about 40% | human BA ([3]; human): 40% | oral BA, patients heterozygous variant for the BCRP SNP vs normal BCRP ([3]; human): 1.3 fold | BA when GF120918 is orally coadministered ([3]; human, with GF120918 (BCRP inhibitor)): 100% | AQp‐gp in vitro (Caco‐2) (P‐gp [8]): 0.14
